Measurements from patent publication US20150105252A1, “SUBSTITUTED PYRAZOLES AS HERBICIDES” (E I DU PONT DE NEMOURS AND COMPANY, priority 2013, published 2015).

Experiments:
[1] = test system: ryegrass, Italian; assay: Test C preemergence; format: in vivo, Lolium multiflorum; details: preemergence
Procedure, shortened: (§1)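 In this greenhouse assay, seeded soil (loam plus sand) or emerged seedlings in peat-vermiculite medium were treated with formulated compound. Roughly two weeks later (13–15 days), each species was scored visually relative to controls, from 0 for no effect to 100 for complete control.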

[2] = test system: foxtail, giant; assay: Test C postemergence; format: in vivo, Setaria faberii
Procedure, shortened: as §1

[3] = test system: oat, wild; assay: Test C postemergence; format: in vivo, Avena fatua
Procedure, shortened: as §1

[4] = test system: corn; assay: Test A postemergence; format: in vivo, Zea mays
Procedure, shortened: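 Greenhouse test in loam soil/sand blend; compounds formulated in non-phytotoxic solvent with surfactant, applied as preemergence directed soil spray or postemergence to plants 2–10 cm tall at one- to two-leaf stage. Injury rated visually versus untreated controls after approximately 10 days on a 0 (no effect) to 100 (complete control) scale.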

[5] = test system: crabgrass, large; assay: Test C preemergence; format: in vivo, Digitaria sanguinalis; details: preemergence
Procedure, shortened: as §1

[6] = test system: chickweed; assay: Test C postemergence; format: in vivo, Stellaria media
Procedure, shortened: as §1

[7] = test system: sedge, umbrella; assay: Test B flood; format: in vivo, Cyperus difformis; details: 250 g ai/ha, visual rating on 0 to 100 scale (0 no effect, 100 complete control), 13 to 15 days
Procedure, shortened: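 2-leaf plants; pots flooded 3 cm over soil; compound added to paddy water, depth kept constant. Greenhouse 13–15 d. Visual rating vs controls, 0–100 scale (100 = complete control); dash = no result.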

[8] = test system: ragweed; assay: Test C postemergence; format: in vivo, Ambrosia elation; details: postemergence
Procedure, shortened: as §1

[9] = test system: wheat; assay: Test C postemergence; format: in vivo, Triticum aestivum; details: postemergence
Procedure, shortened: as §1

[10] = test system: pigweed; assay: Test C postemergence; format: in vivo, Amaranthus retroflexus; details: postemergence
Procedure, shortened: as §1

[11] = test system: galium; assay: Test C preemergence; format: in vivo, Galium aparine; details: preemergence
Procedure, shortened: as §1

[12] = test system: morningglory; assay: Test C postemergence; format: in vivo, Ipomoea coccinea
Procedure, shortened: as §1

[13] = 31 g ai/ha, visual rating, scale 0 to 100 (0 no effect, 100 complete control), 13 to 15 days
[14] = 62 g ai/ha, scale 0 to 100 (0 no effect, 100 complete control), 13 to 15 days
[15] = 125 g ai/ha, 13 to 15 days, scale 0 to 100, 0 = no effect, 100 = complete control
[16] = 250 g ai/ha, scale 0 to 100, 0 is no effect, 100 is complete control
[17] = Postemergence, 31 g ai/ha, visually evaluated after 13 to 15 days
[18] = postemergence, 62 g ai/ha, scale 0 to 100
[19] = postemergence, 250 g ai/ha, scale 0 to 100 (0 no effect, 100 complete control)
[20] = postemergence, 125 g ai/ha, scale 0 to 100, 0 no effect, 100 complete control
[21] = 250 g ai/ha, scale 0 to 100 (0 no effect, 100 complete control)
[22] = 125 g ai/ha, scale 0 to 100, 0 no effect, 100 complete control

CCCc1cc(C(=O)NC2CC2)nn1Cc1ccnc(OC(F)F)c1 [Compound 205]
Ryegrass, Italian plant response rating [1, 13]: 60 | Ryegrass, Italian plant response rating [1, 14]: 70 | Plant response rating, Ryegrass, Italian [1, 15]: 90 | Ryegrass, Italian plant response rating [1, 16]: 95 | Plant response rating (scale of 0 to 100 where 0 is no effect and 100 is complete control), Foxtail, Giant [2, 17]: 20 | Foxtail, Giant plant response rating [2, 18]: 35 | Plant response rating, Foxtail, Giant [2, 19]: 65 | Plant response rating, Foxtail, Giant [2, 20]: 70 | Plant response rating (scale of 0 to 100 where 0 is no effect and 100 is complete control), Oat, Wild [3, 17]: 5 | Oat, Wild plant response rating [3, 18]: 5 | Plant response rating, Oat, Wild [3, 19]: 10 | Plant response rating, Oat, Wild [3, 20]: 5 | Corn plant response rating ([4]; Postemergence, 500 g ai/ha, 0 to 100 scale (0 no effect, 100 complete control)): 100 | Corn plant response rating ([4]; postemergence, 125 g ai/ha, about 10 days, visual rating on 0 to 100 scale (0 no effect, 100 complete control)): 70 | Crabgrass, Large plant response rating [5, 13]: 100 | Crabgrass, Large plant response rating [5, 14]: 100 | Plant response rating, Crabgrass, Large [5, 15]: 100 | Crabgrass, Large plant response rating [5, 16]: 100 | Plant response rating (scale of 0 to 100 where 0 is no effect and 100 is complete control), Chickweed [6, 17]: 65 | Chickweed plant response rating [6, 18]: 90 | Plant response rating, Chickweed [6, 19]: 100 | Plant response rating, Chickweed [6, 20]: 98 | Plant response rating, Sedge, Umbrella [7]: 100 | Plant response rating, Ragweed [8, 21]: 80 | Plant response rating, Ragweed [8, 22]: 60 | Plant response rating, Wheat [9, 21]: 5 | Wheat plant response rating ([9]; scale 0 to 100): 5 | Pigweed plant response rating ([10]; 62 g ai/ha, scale 0 to 100): 85 | Plant response rating, Pigweed [10, 21]: 100 | Plant response rating, Pigweed [10, 22]: 85 | Galium plant response rating [11, 13]: 100 | Galium plant response rating [11, 14]: 90 | Plant response rating, Galium [11, 15]: 95 | Galium plant response rating [11, 16]: 100 | Plant response rating (scale of 0 to 100 where 0 is no effect and 100 is complete control), Morningglory [12, 17]: 65 | Morningglory plant response rating [12, 18]: 70 | Plant response rating, Morningglory [12, 19]: 95 | Plant response rating, Morningglory [12, 20]: 80
